Results reported in the NIST ThermoML archive (doi:10.1021/je101361u).
Numbers after ± are expanded uncertainties.

Conditions: 101.33 kPa, Liquid

CCOCCOCCOCC [diethylene glycol diethyl ether]
Conditions | mass density [kg/m3]
283.15 K | 916.36 ± 1.1
284.15 K | 915.39 ± 1.1
285.15 K | 914.43 ± 1.1
286.15 K | 913.46 ± 1.1
287.15 K | 912.5 ± 1.1
288.15 K | 911.53 ± 1.1
289.15 K | 910.57 ± 1.1
290.15 K | 909.6 ± 1.1
291.15 K | 908.63 ± 1.1
292.15 K | 907.67 ± 1.1
293.15 K | 906.71 ± 1.1
294.15 K | 905.75 ± 1.1
295.15 K | 904.78 ± 1.1
296.15 K | 903.81 ± 1.1
297.15 K | 902.85 ± 1.1
298.15 K | 901.88 ± 1.1
299.15 K | 900.92 ± 1.1
300.15 K | 899.95 ± 1.1
301.15 K | 898.98 ± 1.1
302.15 K | 898.02 ± 1.1
303.15 K | 897.05 ± 1.1
304.15 K | 896.08 ± 1.1
305.15 K | 895.12 ± 1.1
306.15 K | 894.15 ± 1.1
307.15 K | 893.18 ± 1.1
308.15 K | 892.21 ± 1.1
309.15 K | 891.25 ± 1.1
310.15 K | 890.28 ± 1.1
311.15 K | 889.31 ± 1.1
312.15 K | 888.34 ± 1.1
313.15 K | 887.37 ± 1.1
314.15 K | 886.4 ± 1.1
315.15 K | 885.43 ± 1.1
316.15 K | 884.46 ± 1.1
317.15 K | 883.48 ± 1.1
318.15 K | 882.51 ± 1.1
319.15 K | 881.54 ± 1.1
320.15 K | 880.57 ± 1.1
321.15 K | 879.6 ± 1.1
322.15 K | 878.63 ± 1.1
323.15 K | 877.66 ± 1.1
324.15 K | 876.7 ± 1.1
325.15 K | 875.73 ± 1.1
326.15 K | 874.75 ± 1.1
327.15 K | 873.78 ± 1.1
328.15 K | 872.81 ± 1.1
329.15 K | 871.84 ± 1.1
330.15 K | 870.87 ± 1.1
331.15 K | 869.89 ± 1.1
332.15 K | 868.92 ± 1.1
333.15 K | 867.94 ± 1.1

ClCCCl [1,2-dichloroethane]
Conditions | mass density [kg/m3]
283.15 K | 1267.39 ± 0.29
284.15 K | 1265.95 ± 0.29
285.15 K | 1264.5 ± 0.29
286.15 K | 1263.05 ± 0.29
287.15 K | 1261.6 ± 0.28
288.15 K | 1260.15 ± 0.28
289.15 K | 1258.7 ± 0.28
290.15 K | 1257.25 ± 0.28
291.15 K | 1255.8 ± 0.28
292.15 K | 1254.35 ± 0.28
293.15 K | 1252.89 ± 0.28
294.15 K | 1251.44 ± 0.28
295.15 K | 1249.98 ± 0.28
296.15 K | 1248.52 ± 0.27
297.15 K | 1247.07 ± 0.27
298.15 K | 1245.61 ± 0.27
299.15 K | 1244.15 ± 0.27
300.15 K | 1242.69 ± 0.27
301.15 K | 1241.22 ± 0.27
302.15 K | 1239.76 ± 0.27
303.15 K | 1238.29 ± 0.27
304.15 K | 1236.83 ± 0.26
305.15 K | 1235.36 ± 0.26
306.15 K | 1233.89 ± 0.26
307.15 K | 1232.42 ± 0.26
308.15 K | 1230.95 ± 0.26
309.15 K | 1229.47 ± 0.26
310.15 K | 1228 ± 0.26
311.15 K | 1226.53 ± 0.26
312.15 K | 1225.05 ± 0.26
313.15 K | 1223.57 ± 0.25
314.15 K | 1222.09 ± 0.25
315.15 K | 1220.61 ± 0.25
316.15 K | 1219.13 ± 0.25
317.15 K | 1217.64 ± 0.25
318.15 K | 1216.16 ± 0.25
319.15 K | 1214.67 ± 0.25
320.15 K | 1213.18 ± 0.25
321.15 K | 1211.69 ± 0.24
322.15 K | 1210.2 ± 0.24
323.15 K | 1208.7 ± 0.24
324.15 K | 1207.21 ± 0.24
325.15 K | 1205.71 ± 0.24
326.15 K | 1204.21 ± 0.24
327.15 K | 1202.71 ± 0.24
328.15 K | 1201.21 ± 0.24
329.15 K | 1199.7 ± 0.23
330.15 K | 1198.19 ± 0.23
331.15 K | 1196.69 ± 0.23
332.15 K | 1195.18 ± 0.23
333.15 K | 1193.66 ± 0.23

COCCOC [1,2-dimethoxyethane]
Conditions | mass density [kg/m3]
283.15 K | 877.64 ± 0.47
284.15 K | 876.56 ± 0.47
285.15 K | 875.48 ± 0.47
286.15 K | 874.4 ± 0.48
287.15 K | 873.31 ± 0.48
288.15 K | 872.23 ± 0.48
289.15 K | 871.14 ± 0.48
290.15 K | 870.05 ± 0.48
291.15 K | 868.96 ± 0.48
292.15 K | 867.87 ± 0.48
293.15 K | 866.79 ± 0.49
294.15 K | 865.7 ± 0.49
295.15 K | 864.61 ± 0.49
296.15 K | 863.51 ± 0.49
297.15 K | 862.42 ± 0.49
298.15 K | 861.32 ± 0.49
299.15 K | 860.22 ± 0.49
300.15 K | 859.12 ± 0.5
301.15 K | 858.01 ± 0.5
302.15 K | 856.91 ± 0.5
303.15 K | 855.8 ± 0.5
304.15 K | 854.69 ± 0.5
305.15 K | 853.58 ± 0.5
306.15 K | 852.46 ± 0.5
307.15 K | 851.35 ± 0.51
308.15 K | 850.24 ± 0.51
309.15 K | 849.13 ± 0.51
310.15 K | 848.02 ± 0.51
311.15 K | 846.9 ± 0.51
312.15 K | 845.79 ± 0.51
313.15 K | 844.67 ± 0.51
314.15 K | 843.55 ± 0.52
315.15 K | 842.42 ± 0.52
316.15 K | 841.29 ± 0.52
317.15 K | 840.17 ± 0.52
318.15 K | 839.04 ± 0.52
319.15 K | 837.91 ± 0.52
320.15 K | 836.77 ± 0.52
321.15 K | 835.64 ± 0.53
322.15 K | 834.5 ± 0.53
323.15 K | 833.36 ± 0.53
324.15 K | 832.22 ± 0.53
325.15 K | 831.08 ± 0.53
326.15 K | 829.93 ± 0.53
327.15 K | 828.78 ± 0.53
328.15 K | 827.63 ± 0.54
329.15 K | 826.48 ± 0.54
330.15 K | 825.33 ± 0.54
331.15 K | 824.17 ± 0.54
332.15 K | 823.02 ± 0.54
333.15 K | 821.86 ± 0.54

COCCOCCOC [2,5,8-trioxanonane]
Conditions | mass density [kg/m3]
283.15 K | 953.66 ± 0.38
284.15 K | 952.67 ± 0.38
285.15 K | 951.69 ± 0.38
286.15 K | 950.7 ± 0.38
287.15 K | 949.71 ± 0.38
288.15 K | 948.72 ± 0.38
289.15 K | 947.73 ± 0.39
290.15 K | 946.74 ± 0.39
291.15 K | 945.75 ± 0.39
292.15 K | 944.76 ± 0.39
293.15 K | 943.76 ± 0.39
294.15 K | 942.79 ± 0.39
295.15 K | 941.79 ± 0.39
296.15 K | 940.79 ± 0.39
297.15 K | 939.8 ± 0.4
298.15 K | 938.8 ± 0.4
299.15 K | 937.8 ± 0.4
300.15 K | 936.81 ± 0.4
301.15 K | 935.81 ± 0.4
302.15 K | 934.82 ± 0.4
303.15 K | 933.82 ± 0.4
304.15 K | 932.82 ± 0.4
305.15 K | 931.82 ± 0.4
306.15 K | 930.82 ± 0.41
307.15 K | 929.83 ± 0.41
308.15 K | 928.83 ± 0.41
309.15 K | 927.82 ± 0.41
310.15 K | 926.83 ± 0.41
311.15 K | 925.82 ± 0.41
312.15 K | 924.82 ± 0.41
313.15 K | 923.82 ± 0.41
314.15 K | 922.81 ± 0.42
315.15 K | 921.81 ± 0.42
316.15 K | 920.8 ± 0.42
317.15 K | 919.8 ± 0.42
318.15 K | 918.79 ± 0.42
319.15 K | 917.78 ± 0.42
320.15 K | 916.78 ± 0.42
321.15 K | 915.77 ± 0.42
322.15 K | 914.75 ± 0.43
323.15 K | 913.75 ± 0.43
324.15 K | 912.73 ± 0.43
325.15 K | 911.72 ± 0.43
326.15 K | 910.7 ± 0.43
327.15 K | 909.69 ± 0.43
328.15 K | 908.67 ± 0.43
329.15 K | 907.65 ± 0.44
330.15 K | 906.63 ± 0.44
331.15 K | 905.62 ± 0.44
332.15 K | 904.6 ± 0.44
333.15 K | 903.59 ± 0.44
